Reference: patent publication US6376469B1, “Crystalline amrubicin hydrochloride” (Sumitomo Pharmaceuticals Company, Limited, priority 1997, dated 2002)

Test: Preservation stability of crystalline amrubicin hydrochlorides (80° C., 24 hours, HPLC)
Type: physicochemical
Settings: for remaining amount (%): crystals kept at 80° C. for 24 hours, measured by high performance liquid chromatography, amount at the starting time defined as 100%, hydrochloride
Protocol: Preservation stability of crystalline amrubicin hydrochlorides
β-Type crystalline amrubicin hydrochloride obtained in Example 1 and α-type crystalline amrubicin hydrochloride obtained in Reference example 1 were each kept at a temperature of 80° C. for 24 hours. Thereafter, the remaining amount of crystals were measured using high performance liquid chromatography. The amount at the starting time is defined as 100%.

Row | SMILES | remaining amount (%) | thermal stability (comparison of crystal forms) (conclusion from Table 2, 80° C. for 24 hours)
1 | CC(=O)[C@]1(N)Cc2c(O)c3c(c(O)c2[C@@H](OC2CC(O)C(O)CO2)C1)C(=O)c1ccccc1C3=O.Cl (stereo partly drawn) [α-type crystalline, (7S,9S)-9-acetyl-9-amino-7-[(2-deoxy-β-D-erythro-pentapyranosyl)oxy]-7,8,9, 10-tetrahydro-6,11-dihydroxy-5,12-naphthacenedione hydrochloride, reference compound] | 92.2 | 
2 | CC(=O)[C@]1(N)Cc2c(O)c3c(c(O)c2[C@@H](OC2CC(O)C(O)CO2)C1)C(=O)c1ccccc1C3=O.Cl (stereo partly drawn) [β-type crystalline, (7S,9S)-9-acetyl-9-amino-7-[(2-deoxy-β-D-erythro-pentapyranosyl)oxy]-7,8,9, 10-tetrahydro-6,11-dihydroxy-5,12-naphthacenedione hydrochloride] | 100.4 | higher thermal stability than α-type crystalline amrubicin hydrochloride
